Results: patent publication US20130190240A1, “TUMOR GROWTH CONTROLLING METHOD TARGETING GALACTOSYLCERAMIDE EXPRESSION FACTOR-1” (priority 2010, published 2013)
Square brackets hold non-standard residues; d marks the D form. Ends that are not written are not given here.

Legend:
[1] = system: SMAD transcriptional activity; test: SMAD transcriptional activity (luciferase) with GEF-1/C constituent oligopeptides, B16 cells; assay type: cell-based, mouse; conditions: oligopeptide 2.5 nmol with peptide transporter Wr-T, 48 hours
Procedure: Each GEF-1/C constituent oligopeptide (2.5 nmol) and a peptide transporter Wr-T (0.2 nmol) were mixed and then diluted to 0.1 ml with PBS, and mixed with a DNA solution for SMAD transcriptional activity testing (0.1 ml). To the respective cells (B16 cells and COLO205 cells) in a 48-well plate, which had been washed with Opti-MEM I medium, the mixture thus prepared was added in a volume of 0.2 ml per well. After 4 hours, 20% FBS/Opti-MEM I medium (0.2 ml) was added to each well. After 48 hours, the respective cells were lysed and the luciferase activity in each lysate was measured.

COLO205 cells [2] = test: growth in soft agar medium, COLO205 cells; assay type: cell-based, human; conditions: oligopeptide introduced with Wr-T
Procedure: (§1) A cell culture solution (1.5 ml), in which agarose (low gelling temperature agarose) was dissolved at a concentration of 0.5% (w/v), was added to a 35 mm dish, cooled and gelled. Onto the resulting gel, a 0.33% agarose/cell culture medium containing 5.0×10^3 cells was added in a volume of 1.5 ml. After gelling, the cells were cultured in a CO2 incubator for 2 weeks. A 0.005% (w/v) aqueous solution of crystal violet (0.5 ml) was added onto the gel and incubated overnight to stain the cells. The 35 mm dish was scanned with a scanner, and colony counts were measured from the resulting image using image analysis software.
(§2) The GEF-1/C constituent oligopeptides were studied for their inhibitory effect on the growth of various tumor cells (B16 cells, HeLa cells, COLO205 cells, KATO III cells, A549 cells and PT45 cells) in soft agar medium.
(§3) In the same manner as shown in (2) above, the GEF-1/C constituent oligopeptides were introduced into various tumor cells and these cells were seeded together with a 0.33% soft agar medium.

HeLa cells = test: growth in soft agar medium, HeLa cells; assay type: cell-based, human; conditions: oligopeptide introduced with Wr-T
Procedure: as §1, §2, §3

B16 cells [3] = test: in vivo anti-tumor growth effect of oligopeptides, B16 cells in nude mice; parameters: species or system mouse; conditions: cells incubated with oligopeptide 25 nmol and Wr-T for 2 hours, then inoculated subcutaneously into nude mice
Procedure: Each GEF-1/C constituent oligopeptide (25 nmol) and a peptide transporter Wr-T (2 nmol) were mixed and then diluted to 0.1 ml with PBS, to which each cell suspension prepared at 5.0×10^6 cells/ml Opti-MEM I medium was then added in a volume of 0.1 ml and mixed. This cell mixture was incubated in a CO2 incubator at 37° C. for 2 hours and then inoculated subcutaneously into nude mice. The long and short axes of tumor were measured at intervals of a week to calculate the tumor volume (=long axis×(short axis)^2×π/6). After the mice were finally euthanized with carbon dioxide gas, tumor in each mouse was photographed. Subsequently, the tumor was excised and measured for its wet weight.

B16 cells [4] = test: growth in soft agar medium, B16 cells; assay type: cell-based, mouse; conditions: oligopeptide introduced with Wr-T
Procedure: as §1, §2, §3

COLO205 cells [5] = test: in vivo anti-tumor growth effect of r9-OP10-11 on established COLO205 tumor in nude mice; parameters: species or system human; conditions: tumor already formed; 35 nmol in PBS around the tumor, four weekly administrations
Procedure: 1.0×10^6 COLO205 cells were inoculated subcutaneously into nude mice to prepare tumor of COLO205 cells. At 10 days after inoculation, a solution of r9-OP10-11 (35 nmol)/PBS was administered in a volume of 0.1 ml around the tumor whose diameter reached 5 to 6 mm (about 100 mm^3) At 7, 14 and 21 days after this administration, the same administration was repeated. The long and short axes of tumor were measured to calculate the tumor volume (=long axis×(short axis)^2×π/6). After the mice were finally euthanized with carbon dioxide gas, tumor in each mouse was photographed. Subsequently, the tumor was excised and measured for its wet weight.

B16 cells [6] = test: cell migration ability of shRNA-expressing B16 cells, Boyden chamber; assay type: cell-based, mouse; conditions: B16 cells stably expressing the shRNA
Procedure: (§4) The respective shRNA expression vectors prepared in i) above were each introduced into B16 cells by gene transfer and subjected to drug selection using G418 drug (1 mg/ml). B16 cells expressing the respective shRNAs (B16/shRNA-74 cells, B16/shRNA-157 cells and B16/shRNA-207 cells) were finally obtained by cloning. These cells were confirmed for their GEF-1 expression levels by Western blotting and also examined for their ability of cell migration using a Boyden chamber.

GEF-1 (Hrs/Hgs) = test: GEF-1 (Hgs) expression level by Western blotting in shRNA-expressing B16 cells; assay type: cell-based, mouse; conditions: B16 cells stably expressing the shRNA
Procedure: as §4

KOP2.16 cells = test: tube formation inhibition test with GEF-1 siRNAs; assay type: cell-based, mouse; conditions: siRNA 40 nmol with lipofectamine 2000; transfected KOP2.16 cells seeded on Matrigel
Procedure: To confirm the in vitro anti-angiogenic effect of the GEF-1-siRNAs, a tube formation inhibition test was conducted using vascular endothelial KOP2.16 cells.
Each siRNA (40 nmol) and lipofectamine 2000 (10 μl) were mixed and then diluted to 1.0 ml with Opti-MEM I medium, and added to KOP2.16 cells in a 35 mm dish, which had been washed with Opti-MEM I medium. After 4 hours, 20% FBS-containing Opti-MEM I medium (1.0 ml) was added to the dish. After 48 hours, siRNA-transfected cells were collected and counted, and then suspended in Opti-MEM I medium and seeded again on Matrigel. After 18 to 48 hours, tube formation in the cells was observed. As negative controls, PBS (“None” in FIG. 15) and Stealth RNA Negative Control Medium GC Duplex (Invitrogen) (“siRNA-MNC” in FIG. 15) were used.

B16 cells [7] = test: in vivo anti-tumor growth effect of siRNA#3, B16 tumor in nude mice; parameters: species or system mouse; conditions: siRNA#3/atelocollagen mixture injected near the tumor, three times at intervals of a week
Procedure: B 16 cells were inoculated subcutaneously into nude mice. After about a week when tumor reached about 5 mm diameter (about […]), an siRNA#3/atelocollagen mixture (0.2 ml) was injected near the tumor. Subsequently, the same siRNA#3/atelocollagen mixture was further injected twice near the tumor at intervals of a week.

Substance: OP10-7: GEF-1/C constituent oligopeptide ALSALREEHR (SEQ ID NO: 60)
- inhibition of SMAD transcriptional activity [1]: about 50%

Substance: OP10-10: GEF-1/C constituent oligopeptide KLEIMRQKKQ (SEQ ID NO: 63)
- inhibition of growth ability in soft agar medium (COLO205 cells [2]): about 50%

Substance: OP10-11: GEF-1/C constituent oligopeptide EYLEVQRQLA (SEQ ID NO: 64)
- inhibition of growth ability in soft agar medium (HeLa cells): about 20%
- inhibition of B16 cell tumor growth (B16 cells [3]): ≥ 50%
- inhibition of growth ability in soft agar medium (COLO205 cells [2]): about 50%
- inhibition of growth ability in soft agar medium (B16 cells [4]): about 60%
- inhibition of SMAD transcriptional activity [1]: about 50%

Substance: OP10-12: GEF-1/C constituent oligopeptide IQRLQEQEKE (SEQ ID NO: 65)
- inhibition of SMAD transcriptional activity [1]: about 50%

Substance: r9-OP10-11: OP10-11 linked to a cell membrane permeable peptide, rrrrrrrrrGPGEYLEVQRQLA (r = D-arginine) (SEQ ID NO: 67) ([dR][dR][dR][dR][dR][dR][dR][dR][dR]GPGEYLEVQRQLA)
- inhibition of growth of COLO205 cell tumor in tumor volume (COLO205 cells [5]): about 65%
- inhibition of growth of COLO205 cell tumor in tumor weight (COLO205 cells [5]): about 60%

Substance: shRNA-157: shRNA against mouse GEF-1 (Hrs/Hgs) gene, Hgs157 template SEQ ID NO: 26; B16/shRNA-157 cells used as B16/shRNA cells (DNA CCGTTAATGATAAGAACCCACTTCAAGAGAGTGGGTTCTTATCATTAACTTTTTA)
- inhibition of cell migration ability (B16 cells [6]): 95%
- inhibition of Hgs expression (GEF-1 (Hrs/Hgs)): 95%

Substance: siRNA#2: stealth RNAi against mouse Hgs; sense 5′-GGACGAUACUCGUCGACUUGUUCUU (SEQ ID NO: 32, 33) (antisense AAGAACAAGUCGACGAGUAUCGUCC; listed as RNA, chemistry not given here)
- inhibitory effect on tube formation (KOP2.16 cells): significant inhibitory effect

Substance: siRNA#3: stealth RNAi against mouse Hgs; sense 5′-UAGAAUGGACUCCCAGUCUGACUCC (SEQ ID NO: 34, 35) (antisense GGAGUCAGACUGGGAGUCCAUUCUA; listed as RNA, chemistry not given here)
- inhibitory effect on tube formation (KOP2.16 cells): significant inhibitory effect
- tumor volume as compared to PBS or siRNA#3-scramble (B16 cells [7]): ≤ 50%
- tumor weight as compared to PBS or siRNA#3-scramble (B16 cells [7]): ≤ 50%
